Source: the supplement of paper PMC10307832

Experiments:
Experiment in all cases: relative viability (nuclei count vs DMSO), 5 days (fraction); higher = more cells survive
[1] = compound: C/C(=N\NC(=S)N1CCC1)/C2=CC=CC=N2 + C[C@]1(O)C[C@@H](c2nc(-c3ccc4ccc(-c5ccccc5)nc4c3)c3c(N)nccn32)C1 [Linsitinib] (partner 1 µM)
Summary of the method: (§1)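 Each reported value is a median over duplicate plates. It expresses relative viability: treated-well nuclei count divided by vehicle-well nuclei count. Lung cancer cell lines in 1536-well plates were dosed by pin tool a day after seeding, alone with one drug or with a fixed anchor-drug dose plus five library-drug doses (not always all listed) in √10 steps, and nuclei were counted after 5 days.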

[2] = compound: C/C(=N\NC(=S)N1CCC1)/C2=CC=CC=N2 + CS(=O)(=O)N1CCN(Cc2cc3nc(-c4cccc5[nH]ncc45)nc(N4CCOCC4)c3s2)CC1 [Pictilisib] (partner 1 µM)
Summary of the method: as §1

[3] = compound: C/C(=N\NC(=S)N1CCC1)/C2=CC=CC=N2 + Nc1ncn([C@H]2C[C@H](O)[C@@H](CO)O2)c(=O)n1 [Decitabine] (partner 2 µM)
Summary of the method: as §1

[4] = compound: C/C(=N\NC(=S)N1CCC1)/C2=CC=CC=N2 + Cc1nc(NC(=O)N2CCC[C@H]2C(N)=O)sc1-c1ccnc(C(C)(C)C(F)(F)F)c1 [Alpelisib] (partner 2 µM)
Summary of the method: as §1

Cell Line	relative viability ([1]; first compound 0.05 µM)	relative viability ([1]; first compound 0.1581 µM)	relative viability ([1]; first compound 0.5 µM)	relative viability ([1]; first compound 1.581 µM)	relative viability ([1]; first compound 5 µM)	relative viability ([2]; first compound 0.05 µM)	relative viability ([2]; first compound 0.1581 µM)	relative viability ([2]; first compound 0.5 µM)	relative viability ([2]; first compound 1.581 µM)	relative viability ([2]; first compound 5 µM)	relative viability ([3]; first compound 0.05 µM)	relative viability ([3]; first compound 0.1581 µM)	relative viability ([3]; first compound 0.5 µM)	relative viability ([3]; first compound 1.581 µM)	relative viability ([3]; first compound 5 µM)	relative viability ([4]; first compound 0.05 µM)	relative viability ([4]; first compound 0.1581 µM)	relative viability ([4]; first compound 0.5 µM)	relative viability ([4]; first compound 1.581 µM)	relative viability ([4]; first compound 5 µM)
NCI-H1993	0.643	0.703	0.58	0.614	0.53	0.743	0.673	0.765	0.676	0.692	0.42	0.497	0.342	0.431	0.381	0.67	0.57	0.555	0.505	0.489
NCI-H1437	0.114	0.122	0.103	0.0866	0.0787	0.0885	0.101	0.0858	0.0683	0.0721	0.263	0.248	0.246	0.199	0.172	0.114	0.127	0.0974	0.0875	0.0851
UMC-11	0.369	0.238	0.205	0.169	0.161	0.19	0.174	0.189	0.144	0.133	0.446	0.2	0.261	0.273	0.2	0.235	0.182	0.153	0.117	0.126
201T	0.742	1	0.564	0.503	0.41	0.438	0.494	0.444	0.389	0.344	0.553	0.802	0.348	0.29	0.28	0.697	0.994	0.647	0.476	0.4
NCI-H358	0.179	0.196	0.163	0.125	0.181	0.178	0.214	0.19	0.142	0.163	0.114	0.12	0.0978	0.0977	0.0971	0.196	0.174	0.142	0.118	0.155
LOU-NH91	0.466	0.509	0.424	0.407	0.422	0.367	0.428	0.439	0.374	0.356	0.625	0.626	0.579	0.462	0.495	0.485	0.442	0.407	0.382	0.424
HOP-62	0.162	0.968	0.0703	0.0888	0.0655	0.0606	0.0715	0.0848	0.0699	0.0611	0.121	0.142	0.0886	0.106	0.117	0.105	0.895	0.0809	0.0743	0.0607
NCI-H1915	0.523	1.03	0.228	0.176	0.153	0.208	0.189	0.17	0.144	0.153	0.115	0.123	0.144	0.124	0.148	0.501	1.08	0.174	0.157	0.143
NCI-H3122	0.145	0.143	0.169	0.246	0.221	0.15	0.129	0.167	0.23	0.187	0.0981	0.269	0.086	0.127	0.136	0.154	0.133	0.193	0.196	0.192
NCI-H1651	0.131	0.126	0.122	0.0894	0.0655	0.0849	0.0897	0.0884	0.0807	0.0572	0.127	0.114	0.103	0.0618	0.0864	0.149	0.112	0.138	0.0797	0.0683
NCI-H838	0.241	0.224	0.198	0.183	0.143	0.172	0.207	0.167	0.102	0.157	0.258	0.261	0.265	0.192	0.2	0.243	0.211	0.189	0.189	0.172
NCI-H596	0.912	0.344	0.251	0.208	0.257	0.251	0.257	0.223	0.212	0.277	0.887	0.408	0.335	0.317	0.418	0.371	0.256	0.267	0.227	0.313
SK-LU-1	0.274	0.231	0.224	0.202	0.21	0.166	0.188	0.212	0.158	0.139	0.274	0.327	0.25	0.246	0.294	0.209	0.163	0.19	0.146	0.196
NCI-H441	0.145	0.15	0.117	0.0833	0.108	0.127	0.101	0.115	0.108	0.128	0.185	0.163	0.17	0.134	0.126	0.159	0.173	0.174	0.166	0.146
NCI-H650	0.214	0.262	0.251	0.153	0.18	0.234	0.235	0.25	0.201	0.202	0.169	0.192	0.187	0.186	0.157	0.187	0.252	0.271	0.225	0.169
SK-MES-1	0.269	0.236	0.225	0.205	0.183	0.168	0.174	0.153	0.139	0.162	0.193	0.186	0.171	0.142	0.19	0.203	0.205	0.188	0.165	0.183
NCI-H1792	0.366	0.261	0.119	0.115	0.066	0.193	0.149	0.122	0.0959	0.0891	0.333	0.172	0.102	0.0665	0.0895	0.457	0.373	0.153	0.114	0.085

Cell Line	relative viability ([1]; first compound 0.05 µM)	relative viability ([1]; first compound 0.1581 µM)	relative viability ([1]; first compound 0.5 µM)	relative viability ([1]; first compound 1.581 µM)	relative viability ([1]; first compound 5 µM)	relative viability ([2]; first compound 0.05 µM)	relative viability ([2]; first compound 0.1581 µM)	relative viability ([2]; first compound 0.5 µM)	relative viability ([2]; first compound 1.581 µM)	relative viability ([2]; first compound 5 µM)	relative viability ([3]; first compound 0.05 µM)	relative viability ([3]; first compound 0.1581 µM)	relative viability ([3]; first compound 0.5 µM)	relative viability ([3]; first compound 1.581 µM)	relative viability ([3]; first compound 5 µM)	relative viability ([4]; first compound 0.05 µM)	relative viability ([4]; first compound 0.1581 µM)	relative viability ([4]; first compound 0.5 µM)	relative viability ([4]; first compound 1.581 µM)	relative viability ([4]; first compound 5 µM)
NCI-H1355	0.259	0.632	0.193	0.182	0.181	0.198	0.165	0.178	0.172	0.148	0.206	0.207	0.189	0.172	0.157	0.205	0.545	0.149	0.145	0.156
SW 1573	0.0916	0.123	0.113	0.152	0.0935	0.102	0.0856	0.0985	0.104	0.0817	0.0582	0.119	0.111	0.0723	0.0647	0.107	0.155	0.169	0.1	0.0847
A549	0.083	0.0782	0.0623	0.0706	0.053	0.0548	0.0774	0.0703	0.0543	0.0578	0.0459	0.0345	0.0375	0.0441	0.0197	0.0613	0.0588	0.054	0.0318	0.0406
NCI-H2347	0.295	0.372	0.325	0.255	0.314	0.275	0.311	0.286	0.275	0.253	0.363	0.335	0.34	0.349	0.367	0.312	0.254	0.296	0.274	0.352
LCLC-97TM1	0.117	0.176	0.1	0.105	0.108	0.101	0.141	0.0914	0.117	0.101	0.0771	0.284	0.0691	0.0739	0.0762	0.107	0.203	0.107	0.106	0.112
EMC-BAC-2	0.365	0.56	0.144	0.178	0.191	0.0912	0.166	0.173	0.193	0.19	0.261	0.268	0.228	0.219	0.212	0.288	0.426	0.122	0.163	0.152
NCI-H1975	0.157	0.151	0.145	0.158	0.163	0.123	0.136	0.127	0.131	0.136	0.151	0.18	0.154	0.156	0.184	0.137	0.137	0.123	0.136	0.154
BEN	0.168	0.171	0.167	0.174	0.189	0.164	0.162	0.156	0.186	0.176	0.253	0.338	0.318	0.266	0.359	0.195	0.194	0.266	0.232	0.198
NCI-H23	0.134	0.196	0.13	0.124	0.151	0.132	0.16	0.159	0.132	0.117	0.178	0.2	0.161	0.172	0.202	0.128	0.148	0.141	0.128	0.155
NCI-H520	0.164	0.145	0.123	0.116	0.169	0.176	0.186	0.18	0.16	0.208	0.161	0.167	0.145	0.159	0.17	0.159	0.144	0.124	0.138	0.154
EPLC-272H	0.16	0.424	0.173	0.149	0.16	0.159	0.159	0.149	0.12	0.138	0.123	0.111	0.109	0.062	0.101	0.125	0.293	0.185	0.166	0.203
LCLC-103H	0.389	0.99	0.262	0.309	0.238	0.269	0.254	0.266	0.234	0.265	0.346	0.684	0.329	0.342	0.291	0.34	0.978	0.24	0.257	0.233
NCI-H2405	0.193	0.207	0.31	0.225	0.223	0.185	0.206	0.232	0.209	0.275	0.284	0.246	0.24	0.239	0.246	0.179	0.198	0.276	0.202	0.199
HCC-15	0.237	0.416	0.103	0.102	0.0909	0.0704	0.087	0.104	0.0822	0.0856	0.0738	0.16	0.117	0.0902	0.0924	0.191	0.453	0.0722	0.0749	0.0746
PC-3 [JPC-3]	0.647	0.973	0.469	0.313	0.311	0.278	0.319	0.31	0.279	0.221	0.534	0.526	0.418	0.344	0.324	0.556	1.03	0.341	0.282	0.208
NCI-H1944	0.875	1.06	0.6	0.259	0.196	0.229	0.305	0.241	0.182	0.182	0.225	0.413	0.158	0.116	0.143	0.669	0.794	0.307	0.191	0.133
